Assay results from patent US6127519A, “Calcitonin derivatives” (Tsumura & Co., priority 1990, dated 2000).
Bridge positions count the residues as written; N and C are the ends. Peptide text beside a SMILES is read from it.

System: calcium concentration in the serum
Assay: Test 1: reduction of calcium level in serum after tail vein administration to rats
Format: in vivo, rats of the Wistar strain
Conditions: 1 ml/kg tail vein, female Wistar rats
Experimental: Six-weeks-old female rats of the Wistar strain (each group consisting of 4 rats) were used as the test animal, and the peptides of the present invention obtained in the examples given hereinafter were tested at concentrations adjusted with a 1% aqueous solution of sodium acetate (pH 4,0) to which 0.1% bovine serum albumin (BSA) was added. The solution was adjusted to a concentration of 166 μg/ml 830 ng/ml or 83 ng/ml and administered with the tail vein in an amount of 1 ml/kg. The back of the rat was fixed and blood was collected just before the administration, and at predetermined intervals after the administration, from the neck vein. The amount of blood collected each time was 0.3 ml. The sampled blood was subjected to centrifugal separation at 3500 rpm for 20 minutes to separate serum and the calcium content in the separated serum was measured by TBA-380 (supplied by Toshiba) using a Wako calcium-measuring kit (o-cpc method), and the ratio of reduction of the calcium concentration in the serum was determined.

[1] = concentration 830 ng/ml, 0 hour (just before administration)
[2] = concentration 830 ng/ml, 1 hour
[3] = concentration 830 ng/ml, 2 hours
[4] = concentration 830 ng/ml, 4 hours
[5] = concentration 830 ng/ml, 6 hours
[6] = concentration 83 ng/ml, 0 hour (just before administration)
[7] = concentration 83 ng/ml, 2 hours
[8] = concentration 83 ng/ml, 4 hours
[9] = concentration 83 ng/ml, 6 hours

Compound	Serum calcium level as percent of pre-dose baseline [1]	Serum calcium level as percent of pre-dose baseline [2]	Serum calcium level as percent of pre-dose baseline [3]	Serum calcium level as percent of pre-dose baseline [4]	Serum calcium level as percent of pre-dose baseline [5]	Serum calcium level as percent of pre-dose baseline [6]	Serum calcium level as percent of pre-dose baseline (concentration 83 ng/ml, 1 hour)	Serum calcium level as percent of pre-dose baseline [7]	Serum calcium level as percent of pre-dose baseline [8]	Serum calcium level as percent of pre-dose baseline [9]
CC[C@H](C)[C@H](NC(=O)[C@H](C)NC(=O)[C@@H](NC(=O)[C@H](CCC(N)=O)NC(=O)[C@@H]1CCCN1C(=O)[C@H](Cc1ccc(O)cc1)NC(=O)[C@H](CC(C)C)NC(=O)[C@H](CCCCN)NC(=O)[C@H](Cc1c[nH]cn1)NC(=O)[C@H](CC(C)C)NC(=O)[C@H](CCC(=O)O)NC(=O)[C@H](CCC(N)=O)NC(=O)[C@H](CO)NC(=O)[C@H](CC(C)C)NC(=O)[C@H](CCCCN)NC(=O)CNC(=O)[C@H](CC(C)C)NC(=O)[C@H](CCSC)NC(=O)[C@@H]1CSSC[C@H](N)C(=O)NCC(=O)N[C@@H](CC(N)=O)C(=O)N[C@@H](CC(C)C)C(=O)N[C@@H](CO)C(=O)N[C@@H]([C@@H](C)O)C(=O)N1)[C@@H](C)O)C(=O)NCC(=O)N[C@@H](CO)C(=O)NCC(=O)N[C@H](C(=O)N1CCC[C@H]1C(N)=O)[C@@H](C)O [Peptide No. 7] (H-CGNLSTCMLGKLSQELHKLYPQTAIGSGTP-NH2; disulfide 1-7)	100.0%	81.9%	91.7%	97.4%	100.0%					
CC[C@H](C)[C@H](NC(=O)[C@H](C)NC(=O)[C@@H](NC(=O)[C@H](CCC(N)=O)NC(=O)[C@@H]1CCCN1C(=O)[C@H](Cc1ccc(O)cc1)NC(=O)[C@@H](NC(=O)[C@H](CCC(N)=O)NC(=O)CNC(=O)[C@H](CCCCN)NC(=O)[C@H](Cc1c[nH]cn1)NC(=O)[C@H](CC(C)C)NC(=O)[C@H](CCC(=O)O)NC(=O)[C@H](CCC(N)=O)NC(=O)[C@H](CO)NC(=O)[C@H](CC(C)C)NC(=O)[C@H](CCCCN)NC(=O)CNC(=O)[C@H](CC(C)C)NC(=O)[C@H](CCSC)NC(=O)[C@@H]1CSSC[C@H](N)C(=O)NCC(=O)N[C@@H](CC(N)=O)C(=O)N[C@@H](CC(C)C)C(=O)N[C@@H](CO)C(=O)N[C@@H]([C@@H](C)O)C(=O)N1)[C@@H](C)O)[C@@H](C)O)C(=O)NCC(=O)N[C@@H](CO)C(=O)NCC(=O)N[C@H](C(=O)N1CCC[C@H]1C(N)=O)[C@@H](C)O [Peptide No. 8] (H-CGNLSTCMLGKLSQELHKGQTYPQTAIGSGTP-NH2; disulfide 1-7)	100.0%	76.6%	78.2%	99.7%	96.3%					
CC[C@H](C)[C@H](NC(=O)[C@H](C)NC(=O)[C@@H](NC(=O)[C@H](CCC(N)=O)NC(=O)[C@@H]1CCCN1C(=O)[C@H](Cc1ccc(O)cc1)NC(=O)[C@@H](NC(=O)[C@H](CCC(N)=O)NC(=O)[C@H](CC(C)C)NC(=O)[C@H](CCCCN)NC(=O)[C@H](Cc1c[nH]cn1)NC(=O)[C@H](CC(C)C)NC(=O)[C@H](CCC(=O)O)NC(=O)[C@H](CCC(N)=O)NC(=O)[C@H](CO)NC(=O)[C@H](CC(C)C)NC(=O)[C@H](CCCCN)NC(=O)CNC(=O)[C@H](CC(C)C)NC(=O)CNC(=O)[C@@H]1CSSC[C@H](N)C(=O)NCC(=O)N[C@@H](CC(N)=O)C(=O)N[C@@H](CC(C)C)C(=O)N[C@@H](CO)C(=O)N[C@@H]([C@@H](C)O)C(=O)N1)[C@@H](C)O)[C@@H](C)O)C(=O)NCC(=O)N[C@H](C(=O)NCC(=O)N[C@@H](C)C(=O)N1CCC[C@H]1C(N)=O)C(C)C [Peptide No. 9] (H-CGNLSTCGLGKLSQELHKLQTYPQTAIGVGAP-NH2; disulfide 1-7)	100.0%	72.8%	78.4%	86.8%	82.4%	100.0%	81.0%	87.5%	84.0%	83.2%
CC[C@H](C)[C@H](NC(=O)[C@H](C)NC(=O)[C@@H](NC(=O)[C@H](CCC(N)=O)NC(=O)[C@@H]1CCCN1C(=O)[C@H](Cc1ccc(O)cc1)NC(=O)[C@@H](NC(=O)[C@H](CCC(N)=O)NC(=O)[C@H](CC(C)C)NC(=O)[C@H](CCCCN)NC(=O)[C@H](Cc1c[nH]cn1)NC(=O)[C@H](CC(C)C)NC(=O)[C@H](CCC(=O)O)NC(=O)[C@H](CCC(N)=O)NC(=O)[C@H](CO)NC(=O)[C@H](CC(C)C)NC(=O)[C@H](CCCCN)NC(=O)CNC(=O)[C@H](CC(C)C)NC(=O)[C@H](C)NC(=O)[C@@H]1CSSC[C@H](N)C(=O)NCC(=O)N[C@@H](CC(N)=O)C(=O)N[C@@H](CC(C)C)C(=O)N[C@@H](CO)C(=O)N[C@@H]([C@@H](C)O)C(=O)N1)[C@@H](C)O)[C@@H](C)O)C(=O)NCC(=O)N[C@H](C(=O)NCC(=O)N[C@@H](C)C(=O)N1CCC[C@H]1C(N)=O)C(C)C [Peptide No. 10] (H-CGNLSTCALGKLSQELHKLQTYPQTAIGVGAP-NH2; disulfide 1-7)	100.0%	70.2%	65.4%	76.1%	84.2%	100.0%	68.7%	77.9%	90.6%	81.6%
CC[C@H](C)[C@H](NC(=O)[C@H](C)NC(=O)[C@@H](NC(=O)[C@H](CCC(N)=O)NC(=O)[C@@H]1CCCN1C(=O)[C@H](Cc1ccc(O)cc1)NC(=O)[C@@H](NC(=O)[C@H](CCC(N)=O)NC(=O)[C@H](CC(C)C)NC(=O)[C@H](CCCCN)NC(=O)[C@H](Cc1c[nH]cn1)NC(=O)[C@H](CC(C)C)NC(=O)[C@H](CCC(=O)O)NC(=O)[C@H](CCC(N)=O)NC(=O)[C@H](CO)NC(=O)[C@H](CC(C)C)NC(=O)[C@H](CCCCN)NC(=O)CNC(=O)[C@H](CC(C)C)NC(=O)[C@@H](NC(=O)[C@@H]1CSSC[C@H](N)C(=O)NCC(=O)N[C@@H](CC(N)=O)C(=O)N[C@@H](CC(C)C)C(=O)N[C@@H](CO)C(=O)N[C@@H]([C@@H](C)O)C(=O)N1)C(C)C)[C@@H](C)O)[C@@H](C)O)C(=O)NCC(=O)N[C@H](C(=O)NCC(=O)N[C@@H](C)C(=O)N1CCC[C@H]1C(N)=O)C(C)C [Peptide No. 11] (H-CGNLSTCVLGKLSQELHKLQTYPQTAIGVGAP-NH2; disulfide 1-7)	100.0%	69.1%	62.7%	77.2%	86.2%	100.0%	69.7%	82.8%	83.9%	81.0%
CC[C@H](C)[C@H](NC(=O)[C@H](C)NC(=O)[C@@H](NC(=O)[C@H](CCC(N)=O)NC(=O)[C@@H]1CCCN1C(=O)[C@H](Cc1ccc(O)cc1)NC(=O)[C@@H](NC(=O)[C@H](CCC(N)=O)NC(=O)[C@H](CC(C)C)NC(=O)[C@H](CCCCN)NC(=O)[C@H](Cc1c[nH]cn1)NC(=O)[C@H](CC(C)C)NC(=O)[C@H](CCC(=O)O)NC(=O)[C@H](CCC(N)=O)NC(=O)[C@H](CO)NC(=O)[C@H](CC(C)C)NC(=O)[C@H](CCCCN)NC(=O)CNC(=O)[C@H](CC(C)C)NC(=O)[C@@H]1CCCN1C(=O)[C@@H]1CSSC[C@H](N)C(=O)NCC(=O)N[C@@H](CC(N)=O)C(=O)N[C@@H](CC(C)C)C(=O)N[C@@H](CO)C(=O)N[C@@H]([C@@H](C)O)C(=O)N1)[C@@H](C)O)[C@@H](C)O)C(=O)NCC(=O)N[C@H](C(=O)NCC(=O)N[C@@H](C)C(=O)N1CCC[C@H]1C(N)=O)C(C)C [Peptide No. 12] (H-CGNLSTCPLGKLSQELHKLQTYPQTAIGVGAP-NH2; disulfide 1-7)	109.0%	77.0%	86.8%	85.8%	88.0%	100.0%	88.0%	92.4%	83.4%	84.0%
